Columns and labels:
[1] = test system: green foxtail (Setaria viridis); assay: Test A preemergence; assay type: in vivo; details: for Foxtail, Green plant response rating: 0 to 100 scale where 0 is no effect and 100 is complete control
How it was run: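 Treatment is preemergence as a directed soil spray after planting, or postemergence at the one- to two-leaf stage, with test chemical in a non-phytotoxic solvent mixture plus surfactant. Plants stay in the greenhouse about 10 d before visual injury scoring on a 0 to 100 scale versus untreated controls.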

[2] = test system: waterhemp (common waterhemp, Amaranthus rudis); assay: Test C preemergence; assay type: in vivo; details: for Plant response rating, Waterhemp: scale 0 to 100, 0 no effect, 100 complete control
How it was run: (§1)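 After treatment with surfactant-containing formulations, either preemergence to seeds in loam-sand soil or postemergence to potted seedlings at 2–18 cm, plants were kept 13–15 d in a greenhouse. Observers then compared them with controls and assigned ratings, 0 signifying no effect and 100 complete control.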

[3] = test system: crabgrass, large (large crabgrass, Digitaria sanguinalis); assay: Test C preemergence; assay type: in vivo; details: for Plant response rating, Crabgrass, Large: scale 0 to 100, 0 no effect, 100 complete control
How it was run: as §1

[4] = test system: wheat (winter wheat, Triticum aestivum); assay: Test C preemergence; assay type: in vivo; details: for Plant response rating, Wheat: scale 0 to 100, 0 no effect, 100 complete control
How it was run: as §1

corn (Zea mays) = assay: Test C preemergence; assay type: in vivo; details: for Plant response rating, Corn: scale 0 to 100, 0 no effect, 100 complete control
How it was run: as §1

[5] = test system: velvetleaf (Abutilon theophrasti); assay: Test C preemergence; assay type: in vivo; details: for Plant response rating, Velvetleaf: scale 0 to 100, 0 no effect, 100 complete control
How it was run: as §1

[6] = test system: pigweed (Amaranthus retroflexus); assay: Test C preemergence; assay type: in vivo; details: for Plant response rating, Pigweed: scale 0 to 100, 0 no effect, 100 complete control
How it was run: as §1

[7] = test system: Galium (catchweed bedstraw, Galium aparine); assay: Test C preemergence; assay type: in vivo; details: for Plant response rating, Galium: scale 0 to 100, 0 no effect, 100 complete control
How it was run: as §1

[8] = test system: ragweed (common ragweed, Ambrosia elatior); assay: Test C preemergence; assay type: in vivo; details: for Plant response rating, Ragweed: scale 0 to 100, 0 no effect, 100 complete control
How it was run: as §1

[9] = test system: ryegrass, Italian (Italian ryegrass, Lolium multiflorum); assay: Test C preemergence; assay type: in vivo; details: for Plant response rating, Ryegrass, Italian: scale 0 to 100, 0 no effect, 100 complete control
How it was run: as §1

[10] = test system: barnyardgrass (Echinochloa crus-galli); assay: Test C preemergence; assay type: in vivo; details: for Plant response rating, Barnyardgrass: scale 0 to 100, 0 no effect, 100 complete control
How it was run: as §1

[11] = test system: morningglory (Ipomoea coccinea); assay: Test C preemergence; assay type: in vivo; details: for Plant response rating, Morningglory: scale 0 to 100, 0 no effect, 100 complete control
How it was run: as §1

[12] = test system: foxtail, giant (giant foxtail, Setaria faberii); assay: Test C preemergence; assay type: in vivo; details: for Plant response rating, Foxtail, Giant: scale 0 to 100, 0 no effect, 100 complete control
How it was run: as §1

[13] = test system: lambsquarters (Chenopodium album); assay: Test C preemergence; assay type: in vivo; details: for Plant response rating, Lambsquarters: scale 0 to 100, 0 no effect, 100 complete control
How it was run: as §1

soybean (Glycine max) = assay: Test C preemergence; assay type: in vivo; details: for Plant response rating, Soybean: scale 0 to 100, 0 no effect, 100 complete control
How it was run: as §1

[14] = test system: oilseed rape (Brassica napus); assay: Test C preemergence; assay type: in vivo; details: for Plant response rating, Oilseed Rape: scale 0 to 100, 0 no effect, 100 complete control
How it was run: as §1

[15] = test system: nutsedge, yellow (yellow nutsedge, Cyperus esculentus); assay: Test C preemergence; assay type: in vivo; details: for Plant response rating, Nutsedge, Yellow: scale 0 to 100, 0 no effect, 100 complete control
How it was run: as §1

[16] = test system: johnsongrass (Sorghum halepense); assay: Test C preemergence; assay type: in vivo; details: for Plant response rating, Johnsongrass: scale 0 to 100, 0 no effect, 100 complete control
How it was run: as §1

[17] = 125 g ai/ha, preemergence, approx. 10 d
[18] = 31 g ai/ha, 0 is no effect, 100 is complete control

O=C1NC[C@H](c2ccc(C(F)(F)F)cn2)[C@H]1C(=O)Nc1ccc(F)c(F)c1F [Compound 1105]
melting point: 173 to 176 °C

C=C(C)c1ccc([C@H]2CN(C)C(=O)[C@@H]2C(=O)Nc2cccc(F)c2C)cc1 [Compound 1150]
melting point: 137 to 141 °C

CN1C[C@H](c2ccc(C(F)(F)F)cn2)[C@@H](C(=O)Nc2cccc(F)c2F)C1=O [Compound 1052]
melting point: 120 to 124 °C

COc1cccc([C@H]2CN(C)C(=O)[C@@H]2C(=O)Nc2ccc(F)c(F)c2F)c1 [Compound 1063]
Foxtail, Green plant response rating ([1]; 31 g ai/ha, Preemergence): 100 | Foxtail, Green plant response rating [1, 17]: 100

COc1cccc([C@H]2CN(C)C(=O)[C@@H]2C(=O)Nc2cccc(F)c2F)c1 [Compound 1062]
Foxtail, Green plant response rating ([1]; 31 g ai/ha, Preemergence): 100 | Foxtail, Green plant response rating [1, 17]: 100

CN1C[C@H](c2csc3c2CCC(F)(F)C3)[C@@H](C(=O)Nc2ccccc2S(C)(=O)=O)C1=O (racemic) [Compound 1367]
Foxtail, Green plant response rating ([1]; 31 g ai/ha, Preemergence): 0 | Plant response rating, Foxtail, Green ([1]; Preemergence, 125 g ai/ha, 0 to 100 scale (0 no effect, 100 complete control)): 60

CN1C[C@H](c2cc(Cl)cc(Cl)c2)[C@@H](C(=O)Nc2cccc(F)c2F)C1=O [Compound 1270]
melting point: 88 to 92 °C

COc1ccc([C@H]2CN(C)C(=O)[C@@H]2C(=O)Nc2ccccc2F)cc1 [Compound 1342]
melting point: 103 to 107 °C

O=C1NC[C@H](c2cc(Cl)cc(Cl)c2)[C@H]1C(=O)Nc1cccc(F)c1F [Compound 1273]
melting point: 136 to 140 °C

COc1cccc([C@H]2CNC(=O)[C@@H]2C(=O)Nc2cccc(F)c2F)c1F [Compound 1061]
melting point: 161 to 165 °C

CSc1ccccc1NC(=O)[C@H]1C(=O)NC[C@@H]1c1ccc(C(F)(F)F)cn1 [Compound 1050]
melting point: 66 to 70 °C

CN1C[C@H](c2ccc(C(F)(F)F)cc2)[C@@H](C(=O)Nc2ccccc2Br)C1=O [Compound 943]
melting point: 104 to 107 °C

CN1CC(c2ccc(F)c(C(F)(F)F)c2)C(C(=O)Nc2cccc(F)c2F)C1=O (centres unmarked) [Compound 613]
Plant response rating (scale of 0 to 100), Waterhemp [2, 18]: 70 | Plant response rating, Waterhemp ([2]; 62 g ai/ha): 75 | Plant response rating, Waterhemp ([2]; 125 g ai/ha): 85 | Plant response rating, Waterhemp ([2]; 250 g ai/ha): 90 | Plant response rating (scale of 0 to 100), Crabgrass, Large [3, 18]: 95 | Plant response rating, Crabgrass, Large ([3]; 62 g ai/ha): 95 | Plant response rating, Crabgrass, Large ([3]; 125 g ai/ha): 95 | Plant response rating, Crabgrass, Large ([3]; 250 g ai/ha): 98 | Plant response rating (scale of 0 to 100), Wheat [4, 18]: 25 | Plant response rating, Wheat ([4]; 62 g ai/ha): 45 | Plant response rating, Wheat ([4]; 125 g ai/ha): 65 | Plant response rating, Wheat ([4]; 250 g ai/ha): 70 | Plant response rating (scale of 0 to 100), Corn (corn (Zea mays); [18]): 40 | Plant response rating, Corn (corn (Zea mays); 62 g ai/ha): 55 | Plant response rating, Corn (corn (Zea mays); 125 g ai/ha): 65 | Plant response rating, Corn (corn (Zea mays); 250 g ai/ha): 85 | Plant response rating (scale of 0 to 100), Velvetleaf [5, 18]: 30 | Plant response rating, Velvetleaf ([5]; 62 g ai/ha): 40 | Plant response rating, Velvetleaf ([5]; 125 g ai/ha): 40 | Plant response rating, Velvetleaf ([5]; 250 g ai/ha): 70 | Plant response rating (scale of 0 to 100), Pigweed [6, 18]: 70 | Plant response rating, Pigweed ([6]; 62 g ai/ha): 80 | Plant response rating, Pigweed ([6]; 125 g ai/ha): 85 | Plant response rating, Pigweed ([6]; 250 g ai/ha): 90 | Plant response rating (scale of 0 to 100), Galium [7, 18]: 90 | Plant response rating, Galium ([7]; 62 g ai/ha): 90 | Plant response rating, Galium ([7]; 125 g ai/ha): 90 | Plant response rating, Galium ([7]; 250 g ai/ha): 90 | Plant response rating (scale of 0 to 100), Ragweed [8, 18]: 25 | Plant response rating, Ragweed ([8]; 62 g ai/ha): 25 | Plant response rating, Ragweed ([8]; 125 g ai/ha): 40 | Plant response rating, Ragweed ([8]; 250 g ai/ha): 65 | Plant response rating (scale of 0 to 100), Ryegrass, Italian [9, 18]: 10 | Plant response rating, Ryegrass, Italian ([9]; 62 g ai/ha): 25 | Plant response rating, Ryegrass, Italian ([9]; 125 g ai/ha): 75 | Plant response rating, Ryegrass, Italian ([9]; 250 g ai/ha): 95 | Plant response rating (scale of 0 to 100), Barnyardgrass [10, 18]: 90 | Plant response rating, Barnyardgrass ([10]; 62 g ai/ha): 95 | Plant response rating, Barnyardgrass ([10]; 125 g ai/ha): 95 | Plant response rating, Barnyardgrass ([10]; 250 g ai/ha): 98 | Plant response rating (scale of 0 to 100), Morningglory [11, 18]: 40 | Plant response rating, Morningglory ([11]; 62 g ai/ha): 40 | Plant response rating, Morningglory ([11]; 125 g ai/ha): 55 | Plant response rating, Morningglory ([11]; 250 g ai/ha): 50 | Plant response rating (scale of 0 to 100), Foxtail, Giant [12, 18]: 95 | Plant response rating, Foxtail, Giant ([12]; 62 g ai/ha): 95 | Plant response rating, Foxtail, Giant ([12]; 125 g ai/ha): 95 | Plant response rating, Foxtail, Giant ([12]; 250 g ai/ha): 98 | Plant response rating (scale of 0 to 100), Lambsquarters [13, 18]: 25 | Plant response rating, Lambsquarters ([13]; 62 g ai/ha): 60 | Plant response rating, Lambsquarters ([13]; 125 g ai/ha): 50 | Plant response rating, Lambsquarters ([13]; 250 g ai/ha): 75 | Plant response rating (scale of 0 to 100), Soybean (soybean (Glycine max); [18]): 0 | Plant response rating, Soybean (soybean (Glycine max); 62 g ai/ha): 0 | Plant response rating, Soybean (soybean (Glycine max); 125 g ai/ha): 0 | Plant response rating, Soybean (soybean (Glycine max); 250 g ai/ha): 0 | Plant response rating (scale of 0 to 100), Oilseed Rape [14, 18]: 15 | Plant response rating, Oilseed Rape ([14]; 62 g ai/ha): 70 | Plant response rating, Oilseed Rape ([14]; 125 g ai/ha): 90 | Plant response rating, Oilseed Rape ([14]; 250 g ai/ha): 90 | Plant response rating (scale of 0 to 100), Nutsedge, Yellow [15, 18]: 0 | Plant response rating, Nutsedge, Yellow ([15]; 62 g ai/ha): 0 | Plant response rating, Nutsedge, Yellow ([15]; 125 g ai/ha): 10 | Plant response rating, Nutsedge, Yellow ([15]; 250 g ai/ha): 20 | Plant response rating (scale of 0 to 100), Johnsongrass [16, 18]: 75 | Plant response rating, Johnsongrass ([16]; 62 g ai/ha): 85 | Plant response rating, Johnsongrass ([16]; 125 g ai/ha): 90 | Plant response rating, Johnsongrass ([16]; 250 g ai/ha): 90

Source: patent publication US12077503B2, “Substituted cyclic amides and their use as herbicides” (FMC CORPORATION, priority 2015, dated 2024)
